From patent publication US12378250B2, “Tricyclic compound as IRAK4 inhibitor” (KOREA RESEARCH INSTITUTE OF CHEMICAL TECHNOLOGY, priority 2018, dated 2025)

Experiments:
[1] = target: T1, IRAK4 enzyme (Homo sapiens, UniProt Q9NWZ3); experiment: IRAK4 enzyme inhibition degree (bead-based kinase assay, peptide substrate BMKC-2, 100 μM ATP); type: biochemical; conditions: for inhibition at 1 µM: compound 1 μM
T1 sequence (Q9NWZ3 1-460): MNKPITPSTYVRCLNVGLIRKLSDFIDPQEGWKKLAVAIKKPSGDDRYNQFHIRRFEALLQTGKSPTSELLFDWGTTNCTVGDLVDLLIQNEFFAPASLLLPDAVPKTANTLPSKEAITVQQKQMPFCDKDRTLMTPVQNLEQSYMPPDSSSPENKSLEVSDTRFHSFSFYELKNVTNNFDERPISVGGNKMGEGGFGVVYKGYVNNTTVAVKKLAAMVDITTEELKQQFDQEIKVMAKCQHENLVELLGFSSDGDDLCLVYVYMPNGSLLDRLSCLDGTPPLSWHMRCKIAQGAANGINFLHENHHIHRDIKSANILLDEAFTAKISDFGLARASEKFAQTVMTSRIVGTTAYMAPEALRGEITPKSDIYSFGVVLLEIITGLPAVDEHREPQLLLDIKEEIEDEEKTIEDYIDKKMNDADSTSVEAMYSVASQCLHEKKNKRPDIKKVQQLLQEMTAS
Procedure, shortened: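 IRAK4 (0.4 ng/μl stock) preincubated 10 min with compound, then 6 μM BMKC-2 peptide with 100 μM ATP (mix concentrations) for 60 min at room temperature; EDTA stop. Phospho-Thr antibody with AlphaScreen donor/acceptor beads detected product; % inhibition versus controls, IC50 by non-linear regression.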

[2] = tested on: TNF-α secretion, peripheral blood mononuclear cells (PBMCs); experiment: Suppression of TNF-α secretion in LPS-treated PBMCs (ELISA); type: cell-based; conditions: PBMC, 100 ng/ml LPS, 24 hours, read-out: TNF-α, % inhibition degree
Experimental: (§1) Peripheral blood mononuclear cells (PBMCs) isolated from whole blood were distributed in a 96-well plate. TNF-α was aliquoted at a density of 1×10^5 cells/well, IFN-α was aliquoted at a density of 2×10^5 cells/well, and TNF-α and IFN-α were treated with a compound diluted to 4-fold of a final concentration and totally cultured for 30 minutes. TNF-α was treated with 100 ng/ml lipopolysaccharide (LPS), IFN-α was treated with 500 nM ODN2216 (CpGTLR9 stimulator), and TNF-α and IFN-α were further cultured for 24 hours and 72 hours, respectively. An enzyme-linked immunosorbent assay (ELISA) was performed on TNF-α and IFN-α using an ELISA kit manufactured by BD Biosciences and an ELISA kit manufactured by PBL Assay Science, Inc., respectively. A cell supernatant and a standard drug were put into the ELISA plates and reacted for 2 hours. The plates were washed and a measurement antibody and streptavidin-HRP were sequentially added thereto. After the plates were washed, a TMB substrate was added thereto and reacted in a dark place. The reaction was stopped by adding a stop solution thereto, and the absorbance at 450 nm and 570 nm was measured using an absorber (OPTIMax tunable microplate reader, molecular devices). The experimental results are shown in [Table 2].

[3] = tested on: IFN-α secretion, peripheral blood mononuclear cells (PBMCs); experiment: Suppression of IFN-α secretion in ODN2216-treated PBMCs (ELISA); type: cell-based; conditions: PBMC, 500 nM ODN2216, 72 hours, read-out: IFN-α, % inhibition degree
Experimental: as §1

[4] = tested on: NF-κB promoter, THP1-Lucia™ NF-κB cell line; experiment: NF-κB promoter inhibition, THP1-Lucia NF-κB cell line; type: cell-based; conditions: 100 ng/ml LPS, 24 hours, read-out: NF-κB, % inhibition degree
Experimental: (§2) A THP1-Lucia™ NF-κB cell line (Invivogen) was used in an NF-κB inhibition experiment, and a THP1-Lucia™ ISG cell line was used in an ISG inhibition experiment. In the NF-κB inhibition experiment, cells were planted at a density of 1×10^4 cells/well in a 96-well plate, and in the ISG inhibition experiment, cells were planted at a density of 2×10^4 cells/well in a 96-well plate. The cells were treated with a compound diluted to 4-fold of a final concentration, and totally cultured for 30 minutes. NF-κB was treated with 100 ng/ml lipopolysaccharide (LPS), ISG was treated with a stimulator of 1 μg/ml Poly(dA:dT)/LyoVec, and NF-κB and ISG were cultured for 24 hours. 10 μl of a cell supernatant was taken and transferred to a 96-well plate. 50 μl of a Quanti-luc solution was aliquoted using an automatic aliquoter of a measurer (Envision Multilabel Plate Reader, Perkin Elmer, Inc.), and light emission signals were measured.

[5] = tested on: ISG promoter, THP1-Lucia™ ISG cell line; experiment: ISG promoter inhibition, THP1-Lucia ISG cell line; type: cell-based; conditions: 1 μg/ml Poly(dA:dT)/LyoVec, 24 hours, read-out: ISG, % inhibition degree
Experimental: as §2

[6] = tested on: TNF-α in serum, LPS-induced systemic inflammatory disease; experiment: Suppressive effects on LPS-induced systemic inflammatory disease in mice (serum TNF-α); type: in vivo, C57BL/6 mice; conditions: doses of 50 and 100 mg/kg, oral, 2 hours prior to LPS 15 mg/kg i.p.
Experimental: As experimental animals, 8-week-old C57BL/6 (20 to 23 g) mice were supplied from Orient Bio Co., Ltd. (Seongnam, Gyeonggi-do) and used. The mice were acclimatized for 2 weeks or more in an animal room of the Korea Research Institute of Chemical Technology, where temperature (22±1° C.) and humidity (50±10%) were automatically adjusted, and then used for experiments, and allowed to freely ingest water and feed. This animal experiment was performed with the approval of the Animal Care and Use Committee of the Korea Research Institute of Chemical Technology. A systemic inflammatory disease was induced by administering a dose of 15 mg/kg lipopolysaccharide (LPS, Sigma L2880) intraperitoneally to the mice. A test drug was suspended in a 10% Cremophor solution and administered orally 2 hours prior to LPS injection, the mice were anesthetized with isoflurane 1 hour after LPS administration, and blood was collected from the heart. Serum was obtained by centrifuging the collected blood at 13,000 rpm for 15 minutes, store at −20° C., and then taken if needed to measure the content of cytokine (TNF-α) in serum using an ELISA kit manufactured by BD Biosciences. […]

Question: Which inhibition at 1 µM [1] does the source give for `COc1cncc(-c2ccc3[nH]c4ncnc(N[C@H]5CC[C@H](N6CCOCC6)CC5)c4c3c2)c1` [Compound 6aad, 6-(5-methoxypyridin-3-yl)-N-(trans-4-morpholinocyclohexyl)-9H-pyrimido[4,5-b]indole-4-amine] here?
Answer: 100%

Question: What about the inhibition at 0.1 µM [2] of the same molecule?
Answer: 42%

Question: And the inhibition at 1 µM [2]?
Answer: 105%

Question: And the inhibition at 0.1 µM [3]?
Answer: 31%

Question: And the inhibition at 1 µM [3]?
Answer: 104%

Question: And the inhibition at 0.1 µM [4]?
Answer: 33%

Question: What about the inhibition at 1 µM [4] of the same molecule?
Answer: 78%

Question: What about the inhibition at 0.1 µM [5] of the same molecule?
Answer: 37%

Question: And the inhibition at 1 µM [5]?
Answer: 79%

Question: What about the “suppressive effect on systemic inflammation (serum TNF-α) compared to PF-06650833” value [6] of the same molecule?
Answer: better suppressive effect than PF-06650833

Question: With `COc1cccc(-c2ccc3[nH]c4ncnc(N[C@H]5CC[C@H](N6CCOCC6)CC5)c4c3c2)c1` [Compound 6aaj, 6-(3-methoxyphenyl)-N-(trans-4-morpholinocyclohexyl)-9H-pyrimido[4,5-b]indole-4-amine] as the molecule, how does the IC50 [1] read?
Answer: 159 nM

Question: And the inhibition at 1 µM [1]?
Answer: 99%

Question: What about the inhibition at 0.1 µM [2] of the same molecule?
Answer: 3.2%

Question: What about the inhibition at 1 µM [2] of the same molecule?
Answer: 30%

Question: And the inhibition at 0.1 µM [3]?
Answer: 6.4%

Question: What about the inhibition at 1 µM [3] of the same molecule?
Answer: 56%

Question: What about the inhibition at 0.1 µM [4] of the same molecule?
Answer: < 1%

Question: And the inhibition at 1 µM [4]?
Answer: 33%

Question: And the inhibition at 0.1 µM [5]?
Answer: 14%

Question: What about the inhibition at 1 µM [5] of the same molecule?
Answer: 20%

Question: What does the source list for `Cn1cc(-c2ccc3[nH]c4ncnc(N[C@H]5CC[C@H](N(C)C)CC5)c4c3c2)cn1` [Compound 6abb, trans-N1,N1-dimethyl-N4-(6-(1-methyl-1H-pyrazol-4-yl)-9H-pyrimido[4,5-b]indol-4-yl)cyclohexane-1,4-diamine]?
Answer: IC50 [1]: 10 nM; inhibition at 1 µM [1]: 82%; inhibition at 0.1 µM [2]: 17.9%; inhibition at 1 µM [2]: 79.4%; inhibition at 0.1 µM [3]: 54%; inhibition at 1 µM [3]: 90.4%; inhibition at 0.1 µM [4]: 50%; inhibition at 1 µM [4]: 83%; inhibition at 0.1 µM [5]: 42%; inhibition at 1 µM [5]: 73%

Question: What does the source list for `Fc1ccc(-c2ccc3[nH]c4ncnc(N[C@H]5CC[C@H](N6CCOCC6)CC5)c4c3c2)c(F)c1` [Compound 6aam, 6-(2,4-difluorophenyl)-N-(trans-4-morpholinocyclohexyl)-9H-pyrimido[4,5-b]indole-4-amine]?
Answer: IC50 [1]: 244 nM; inhibition at 1 µM [1]: 37%; inhibition at 0.1 µM [2]: 5%; inhibition at 1 µM [2]: 28%; inhibition at 0.1 µM [3]: 9%; inhibition at 1 µM [3]: 55%; inhibition at 0.1 µM [4]: < 1%; inhibition at 1 µM [4]: 11%; inhibition at 0.1 µM [5]: < 1%; inhibition at 1 µM [5]: < 1%

Question: How did the IC50 [1] turn out when `COc1cncc(-c2ccc3[nH]c4nccc(N[C@H]5CC[C@H](N6CCOCC6)CC5)c4c3c2)c1` [Compound 17b, 6-(5-methoxypyridin-3-yl)-N-(trans-4-morpholinocyclohexyl)-9H-pyrimido[2,3-b]indole-4-amine] was run?
Answer: 7.2 nM

Question: What about the inhibition at 1 µM [1] of the same molecule?
Answer: 100%

Question: And the inhibition at 0.1 µM [2]?
Answer: 12%

Question: What about the inhibition at 1 µM [2] of the same molecule?
Answer: 63%

Question: What about the inhibition at 0.1 µM [3] of the same molecule?
Answer: 76%

Question: What about the inhibition at 1 µM [3] of the same molecule?
Answer: 110%

Question: And the inhibition at 0.1 µM [4]?
Answer: 14%

Question: What about the inhibition at 1 µM [4] of the same molecule?
Answer: 62%

Question: What about the inhibition at 0.1 µM [5] of the same molecule?
Answer: 4%

Question: What about the inhibition at 1 µM [5] of the same molecule?
Answer: 80%

Question: What does the source list for `COC(=O)c1ccc2c(c1)[nH]c1ncnc(N[C@H]3CC[C@H](N4CCOCC4)CC3)c12` [Compound 5da, methyl 4-((trans-4-morpholinocyclohexyl)amino)-9H-pyrimido[4,5-b]indole-7-carboxylate]?
Answer: IC50 [1]: 128 nM; inhibition at 1 µM [1]: 99%; inhibition at 0.1 µM [2]: 10%; inhibition at 1 µM [2]: 40%; inhibition at 0.1 µM [3]: 10%; inhibition at 1 µM [3]: 40%; inhibition at 0.1 µM [4]: 5%; inhibition at 1 µM [4]: 30%; inhibition at 0.1 µM [5]: 1%; inhibition at 1 µM [5]: 20%

Question: For `Cn1cc(-c2ccc3[nH]c4ncnc(N[C@H]5CC[C@H](N6CCN(S(C)(=O)=O)CC6)CC5)c4c3c2)cn1` [Compound 6aca, 6-(1-methyl-1H-pyrazol-4-yl)-N-(trans-4-(4-(methylsulfonyl)piperazin-1-yl)cyclohexyl)-9H-pyrimido[4,5-b]indole-4-amine], which IC50 [1] is on record?
Answer: 13.8 nM

Question: And the inhibition at 1 µM [1]?
Answer: 100%

Question: What about the inhibition at 0.1 µM [2] of the same molecule?
Answer: 29%

Question: What about the inhibition at 1 µM [2] of the same molecule?
Answer: 107%

Question: And the inhibition at 0.1 µM [3]?
Answer: 40%

Question: And the inhibition at 1 µM [3]?
Answer: 99%

Question: What about the inhibition at 0.1 µM [4] of the same molecule?
Answer: 28%

Question: And the inhibition at 1 µM [4]?
Answer: 85%

Question: And the inhibition at 0.1 µM [5]?
Answer: 23%

Question: And the inhibition at 1 µM [5]?
Answer: 73%
